Patent publication US11331369B2, “Endoparasitic depsipeptides” (Zoetis Services LLC, priority 2017, dated 2022)

The molecules below were run on microfilariae of Dirofilaria immitis (assay: Dirofilaria immitis, Microfilaria (DiMF) In vitro Assay). Settings: 72 h, read-out: DiMF Minimum Effective Dose (MED), approximately 72 hours incubation, microfilariae assessed for survival or paralysis.
Type: cell-based
Molecule `CC(C)C[C@H]1C(=O)O[C@H](Cc2ccc(Cn3nc(CO)cc3CO)cc2)C(=O)N(C)[C@@H](CC(C)C)C(=O)O[C@H](C)C(=O)N(C)[C@@H](CC(C)C)C(=O)O[C@H](Cc2ccc(Cn3nc(C#N)cc3C#N)cc2)C(=O)N(C)[C@@H](CC(C)C)C(=O)O[C@H](C)C(=O)N1C` [Example 1a-2, 1-(4-(((2R,5S,8R,11S,14R,17S,20R,23S)-14-(4-((3,5-bis(hydroxymethyl)-1H-pyrazol-1-yl)methyl)benzyl)-5,11,17,23-tetraisobutyl-4,8,10,16,20,22-hexamethyl-3,6,9,12,15,18,21,24-octaoxo-1,7,13,19-tetraoxa-4,10,16,22-tetraazacyclotetracosan-2-yl)methyl)benzyl)-1H-pyrazole-3,5-dicarbonitrile] has a minimal effective concentration of 0.001 to 0.01 µM.
With `CC(C)C[C@H]1C(=O)O[C@H](Cc2ccc(Cn3nc(-c4ccco4)cc3CO)cc2)C(=O)N(C)[C@@H](CC(C)C)C(=O)O[C@H](C)C(=O)N(C)[C@@H](CC(C)C)C(=O)O[C@H](Cc2ccc(Cn3nc(C#N)cc3C#N)cc2)C(=O)N(C)[C@@H](CC(C)C)C(=O)O[C@H](C)C(=O)N1C` [Example 1a-3, 1-(4-(((2R,5S,8R,11S,14R,17S,20R,23S)-14-(4-((3-(furan-2-yl)-5-(hydroxymethyl)-1H-pyrazol-1-yl)methyl)benzyl)-5,11,17,23-tetraisobutyl-4,8,10,16,20,22-hexamethyl-3,6,9,12,15,18,21,24-octaoxo-1,7,13,19-tetraoxa-4,10,16,22-tetraazacyclotetracosan-2-yl)methyl)benzyl)-1H-pyrazole-3,5-dicarbonitrile] the minimal effective concentration was 0.01 to 0.1 µM.
`CC(C)C[C@H]1C(=O)O[C@H](Cc2ccc(Cn3nc(C4CC4)cc3C3CC3)cc2)C(=O)N(C)[C@@H](CC(C)C)C(=O)O[C@H](C)C(=O)N(C)[C@@H](CC(C)C)C(=O)O[C@H](Cc2ccc(Cn3nc(-c4ccco4)cc3CO)cc2)C(=O)N(C)[C@@H](CC(C)C)C(=O)O[C@H](C)C(=O)N1C` [Example 1a-6, (3S,6R,9S,12R,15S,18R,21S,24R)-6-(4-((3,5-dicyclopropyl-1H-pyrazol-1-yl)methyl)benzyl)-18-(4-((3-(furan-2-yl)-5-(hydroxymethyl)-1H-pyrazol-1-yl)methyl)benzyl)-3,9,15,21-tetraisobutyl-4,10,12,16,22,24-hexamethyl-1,7,13,19-tetraoxa-4,10,16,22-tetraazacyclotetracosan-2,5,8,11,14,17,20,23-octaone] was tested, and the minimal effective concentration was 0.01 to 0.1 µM.
In the case of `Cc1nn(Cc2ccc(C[C@H]3OC(=O)[C@H](CC(C)C)N(C)C(=O)[C@@H](C)OC(=O)[C@H](CC(C)C)N(C)C(=O)[C@@H](Cc4ccc(Cn5nc(C6CC6)cc5C5CC5)cc4)OC(=O)[C@H](CC(C)C)N(C)C(=O)[C@@H](C)OC(=O)[C@H](CC(C)C)N(C)C3=O)cc2)cc1CO` [Example 1a-8, (3S,6R,9S,12R,15S,18R,21S,24R)-6-(4-((3,5-dicyclopropyl-1H-pyrazol-1-yl)methyl)benzyl)-18-(4-((4-(hydroxymethyl)-3-methyl-1H-pyrazol-1-yl)methyl)benzyl)-3,9,15,21-tetraisobutyl-4,10,12,16,22,24-hexamethyl-1,7,13,19-tetraoxa-4,10,16,22-tetraazacyclotetracosan-2,5,8,11,14,17,20,23-octaone], the minimal effective concentration is reported as 0.01 to 0.1 µM.
In the case of `CC(C)C[C@H]1C(=O)O[C@H](Cc2ccc(Cn3cc(-c4ccccc4)cn3)cc2)C(=O)N(C)[C@@H](CC(C)C)C(=O)O[C@H](C)C(=O)N(C)[C@@H](CC(C)C)C(=O)O[C@H](Cc2ccc(Cn3cccn3)cc2)C(=O)N(C)[C@@H](CC(C)C)C(=O)O[C@H](C)C(=O)N1C` [Example 1a-15, (3S,6R,9S,12R,15S,18R,21S,24R)-6-(4-((1H-pyrazol-1-yl)methyl)benzyl)-3,9,15,21-tetraisobutyl-4,10,12,16,22,24-hexamethyl-18-(4-((4-phenyl-1H-pyrazol-1-yl)methyl)benzyl)-1,7,13,19-tetraoxa-4,10,16,22-tetraazacyclotetracosan-2,5,8,11,14,17,20,23-octaone], the minimal effective concentration is reported as 0.01 to 0.1 µM.
In the case of `CC(C)C[C@H]1C(=O)O[C@H](Cc2ccc(Cn3cc(-c4ccc(Cl)cc4)cn3)cc2)C(=O)N(C)[C@@H](CC(C)C)C(=O)O[C@H](C)C(=O)N(C)[C@@H](CC(C)C)C(=O)O[C@H](Cc2ccc(Cn3cccn3)cc2)C(=O)N(C)[C@@H](CC(C)C)C(=O)O[C@H](C)C(=O)N1C` [Example 1a-18, (3S,6R,9S,12R,15S,18R,21S,24R)-6-(4-((1H-pyrazol-1-yl)methyl)benzyl)-18-(4-((4-(4-chlorophenyl)-1H-pyrazol-1-yl)methyl)benzyl)-3,9,15,21-tetraisobutyl-4,10,12,16,22,24-hexamethyl-1,7,13,19-tetraoxa-4,10,16,22-tetraazacyclotetracosan-2,5,8,11,14,17,20,23-octaone], the minimal effective concentration is reported as 0.01 to 0.1 µM.
`Cc1cnn(Cc2ccc(C[C@H]3OC(=O)[C@H](CC(C)C)N(C)C(=O)[C@@H](C)OC(=O)[C@H](CC(C)C)N(C)C(=O)[C@@H](Cc4ccc(Cn5cc(-c6ccccc6)cn5)cc4)OC(=O)[C@H](CC(C)C)N(C)C(=O)[C@@H](C)OC(=O)[C@H](CC(C)C)N(C)C3=O)cc2)c1` [Example 1a-19, (3S,6R,9S,12R,15S,18R,21S,24R)-3,9,15,21-tetraisobutyl-4,6,10,16,18,22-hexamethyl-12-(4-((4-methyl-1H-pyrazol-1-yl)methyl)benzyl)-24-(4-((4-phenyl-1H-pyrazol-1-yl)methyl)benzyl)-1,7,13,19-tetraoxa-4,10,16,22-tetraazacyclotetracosan-2,5,8,11,14,17,20,23-octaone] showed a minimal effective concentration of 0.01 to 0.1 µM.
`Cc1cnn(Cc2ccc(C[C@H]3OC(=O)[C@H](CC(C)C)N(C)C(=O)[C@@H](C)OC(=O)[C@H](CC(C)C)N(C)C(=O)[C@@H](Cc4ccc(Cn5cc(-c6ccc(F)cc6)cn5)cc4)OC(=O)[C@H](CC(C)C)N(C)C(=O)[C@@H](C)OC(=O)[C@H](CC(C)C)N(C)C3=O)cc2)c1` [Example 1a-22, (3S,6R,9S,12R,15S,18R,21S,24R)-6-(4-((4-(4-fluorophenyl)-1H-pyrazol-1-yl)methyl)benzyl)-3,9,15,21-tetraisobutyl-4,10,12,16,22,24-hexamethyl-18-(4-((4-methyl-1H-pyrazol-1-yl)methyl)benzyl)-1,7,13,19-tetraoxa-4,10,16,22-tetraazacyclotetracosan-2,5,8,11,14,17,20,23-octaone] was tested, and the minimal effective concentration was 0.01 to 0.1 µM.
`Cc1cnn(Cc2ccc(C[C@H]3OC(=O)[C@H](CC(C)C)N(C)C(=O)[C@@H](C)OC(=O)[C@H](CC(C)C)N(C)C(=O)[C@@H](Cc4ccc(Cn5nc(C)c(S(=O)(=O)N6CCCC6)c5C)cc4)OC(=O)[C@H](CC(C)C)N(C)C(=O)[C@@H](C)OC(=O)[C@H](CC(C)C)N(C)C3=O)cc2)c1` [Example 1a-23, (3S,6R,9S,12R,15S,18R,21S,24R)-6-(4-((3,5-dimethyl-4-(pyrrolidin-1-ylsulfonyl)-1H-pyrazol-1-yl)methyl)benzyl)-3,9,15,21-tetraisobutyl-4,10,12,16,22,24-hexamethyl-18-(4-((4-methyl-1H-pyrazol-1-yl)methyl)benzyl)-1,7,13,19-tetraoxa-4,10,16,22-tetraazacyclotetracosan-2,5,8,11,14,17,20,23-octaone] showed a minimal effective concentration of 0.01 to 0.1 µM.
